Laboratory results from patent US5182280A, “Derivatives of benzimidazole and their use as antihistamines” (Laboratorios Del Dr. Esteve, S. A., priority 1990, dated 1993).

Experiments:
[1] = test system: death induced by compound 48/80; assay: "In vivo" antihistaminic activity: protection from death induced by 48/80 in the rat; details: ip, i.p. 60 min before 48/80 (0.5 mg/kg, i.v.), survival 4 h after, read-out: ED-50, protection from death induced by 48/80
Protocol: The antihistaminic activity was studied by determining the protection in the face of the mortality induced by the product 48/80 in the rat. This test was realized in accordance with the technique described by C. J. E. Niemegeers and cols. (Arch, int. Pharmacodyn. 234, 164-176 (1978).
The products according to the present invention are administered i.p. to rats. After 60 minutes the compound 48/80 is administered (0.5 mg/kg, i.v.). The protective activity is defined as the survival of the rats 4 hours after the i.v. injection of 48/80.
The activity of the products at several doses in order to determine the dose capable of protecting 50% of the animals (ED-50) was studied.

[2] = test system: sleep time induced by pentobarbital; assay: Sedative effect: potentiation of the sleep time induced by pentobarbital; details: for Potentiation of sleep time (in words): orally; for Potentiation of sleep time: 1 h before sodium pentobarbital (35 mg/kg, s.c.)
Protocol: Study of the potentiation of the sleep time due to pentobarbital was carried out by following the method described by L. E. Allen and cols. […] The products studied were administered orally. […] The sleep time was compared with a group of control animals, treated only with sodium pentobarbital.

[3] = Sedative effect: Irwin test (passivity and ataxia); assay type: in vivo; details: rats, i.p., 1, 2 and 3 hours after treatment
Protocol: Pas.: Passivity, sedation, prostration. Quantitative evaluation between 0 and 3. They were performed 1, 2 and 3 hours after the treatment.
Atax.: Ataxia, the alterations in coordination in locomotion were evaluated. They were evaluated between 0 and 3. They were performed 1, 2 and 3 hours after the treatment.

Structure (SMILES) | ED50 [1] [mg/kg] | Atax. (ataxia; score 0 to 3) ([3]; 80 mg/kg) | Pas. (passivity, sedation, prostration; score 0 to 3) ([3]; 80 mg/kg) | other results
CN(C)CCOC(c1ccccc1)c1ccccc1 [Difenhidramine, reference compound] | 0.84 | – | – | Potentiation of sleep time (in words) ([2]; 20 mg/kg): potentiates significantly the sleep time; Atax. (ataxia; score 0 to 3) ([3]; 40 mg/kg): 0.9; Pas. (passivity, sedation, prostration; score 0 to 3) ([3]; 40 mg/kg): 0
CCOCCn1c(CN2CCN(CCCCn3cc(Br)cn3)CC2)nc2ccccc21 [Example 1, 1-(2-Ethoxyethyl)-2-4-[4--(4-bromopyrazol-1-yl)butyl]piperazin-1-ylmethyl benzimidazole] | 0.09 | 1.3 | 1.4 | –
CCOCCn1c(N2CCN(CCCCn3cc(Br)cn3)CC2)nc2ccccc21 [Example 2, 1-(2-Ethoxyethyl)-2-4-[4-(4-bromopyrazol1yl)butyl]piperazinyl benzimidazole] | 2.7 | 1.3 | 0.7 | Atax. (ataxia; score 0 to 3) ([3]; 40 mg/kg): 0.4; Pas. (passivity, sedation, prostration; score 0 to 3) ([3]; 40 mg/kg): 0
CCOCCn1c(CN2CCN(CCCCn3ccnc3)CC2)nc2ccccc21 [Example 3, 1-(2-Ethoxyethyl)-2-4-[4-(imidazol-1-yl)butyl]piperazin-1-ylmethyl benzimidazole] | 0.13 | 0 | 0 | –
CCOCCn1c(CN2CCN(CCCCn3cncn3)CC2)nc2ccccc21 [Example 4, 1-(2-Ethoxyethyl)-2-4-[4-(1,2,4-triazol-1-yl)butyl]piperazin-1-ylmethyl benzimidazole] | 0.036 | 0.5 | 0.4 | –
CCOCCn1c(CN2CCN(CCCCn3cc(S(=O)(=O)O)cn3)CC2)nc2ccccc21 [Example 5, 1-(2-Ethoxyethyl)-2-4-[4-(4-sulfopyrazol-1-yl)butyl]piperazin-1-ylmethyl benzimidazole] | 2.6 | 0.4 | 0.4 | –
CCOCCn1c(CN2CCN(CCCCn3cc(C(=O)O)cn3)CC2)nc2ccccc21 [Example 6, 1-(2-Ethoxyethyl)-2-4-[4-(4-carboxypyrazol-1-yl)butyl]piperazin-1-ylmethylbenzimidazole] | 0.064 | 0 | 0 | –
CCOCCn1c(CN2CCN(CCCCn3cccn3)CC2)nc2ccccc21 [Example 7, 1-(2-Ethoxyethyl)-2-4-[4-(pyrazol-1-yl)butyl]piperazin-1-ylmethyl benzimidazole] | 0.02 | 0 | 0 | Potentiation of sleep time ([2]; 80 mg/kg orally): 10%; Potentiation of sleep time ([2]; 160 mg/kg orally): 11%; Potentiation of sleep time ([2]; 320 mg/kg orally): 22%; Potentiation of sleep time (in words) ([2]; 320 mg/kg, maximum dose tested): does not potentiate the sleep time; Atax. (ataxia; score 0 to 3) ([3]; 160 mg/kg): 0.3; Pas. (passivity, sedation, prostration; score 0 to 3) ([3]; 160 mg/kg): 0
CCOCCn1c(CN2CCN(CCCCn3cccc3)CC2)nc2ccccc21 [Example 8, 1-(2-Ethoxyethyl)-2-4-[4-(pyrrol-1-yl)butyl]piperazin-1-yl-methyl benzimidazole] | 0.02 | 0 | 0 | –
CCOCCn1c(N2CCN(CCCCn3cc(C(=O)O)cn3)CC2)nc2ccccc21 [Example 9, 1-(2-Ethoxyethyl)-2-4-[4-(4-carboxypryazol-1-yl)butyl]piperazine-1-yl benzimidazole] | 0.84 | 0 | 0 | –
CCOCCn1c(CN2CCN(CCCCn3cnc(Cl)c3Cl)CC2)nc2ccccc21 [Example 10] | 0.66 | – | – | –
